Measured values from ChEMBL document CHEMBL5465560, “Selectivity Literature for EUbOPEN Chemogenomic Library” (2024).

Key:
[1] = molecular target: Serine/threonine-protein kinase Nek7 (Homo sapiens) (UniProt Q8TDX7); experiment: Selectivity interaction (Kinase panel (DSF assay)) EUB0001558a NEK7
[2] = molecular target: Mitogen-activated protein kinase kinase kinase kinase 1 (Homo sapiens) (UniProt Q92918); experiment: Selectivity interaction (KinomeScan (DiscoverX)) EUB0000229b MAP4K1; conditions: at 10 µM
[3] = molecular target: SRSF protein kinase 1 (Homo sapiens, UniProt Q96SB4); experiment: Selectivity interaction (KinomeScan (DiscoverX)) EUB0001079a SRPK1; conditions: at 1 µM
[4] = molecular target: Mitogen-activated protein kinase 1 (Homo sapiens, UniProt P28482); experiment: Selectivity interaction (Kinase panel (KiNativ target engagement assay in Jurkat cells)) EUB0001635a MAPK1; assay type: cell-based; conditions: Selectivity number of off-targets 0.0, Selectivity number of targets 233.0, Source Knowledge https://www.sciencedirect.com/science/article/pii/S2451945619300674?via%3Dihub, at 1 µM
[5] = molecular target: Dual specificity mitogen-activated protein kinase kinase 2 (Homo sapiens) (UniProt P36507); experiment: Selectivity interaction (Rxn Biology Kinase assay) EUB0001632a MAP2K2; conditions: at 10 µM
[6] = molecular target: Ribosomal protein S6 kinase alpha-6 (Homo sapiens, UniProt Q9UK32); experiment: Selectivity interaction (KinomeScan (DiscoverX)) EUB0000311b RPS6KA6; conditions: at 1 µM
[7] = molecular target: T1, Phosphatidylinositol 5-phosphate 4-kinase type-2 gamma (Homo sapiens) (UniProt Q8TBX8); experiment: Selectivity interaction (ActivX KiNativ screen (kinase selectivity in THP-1 cell lysates)) EUB0000639a PIP4K2C; assay type: subcellular; conditions: lysate, at 5 µM
T1 sequence (whole entry): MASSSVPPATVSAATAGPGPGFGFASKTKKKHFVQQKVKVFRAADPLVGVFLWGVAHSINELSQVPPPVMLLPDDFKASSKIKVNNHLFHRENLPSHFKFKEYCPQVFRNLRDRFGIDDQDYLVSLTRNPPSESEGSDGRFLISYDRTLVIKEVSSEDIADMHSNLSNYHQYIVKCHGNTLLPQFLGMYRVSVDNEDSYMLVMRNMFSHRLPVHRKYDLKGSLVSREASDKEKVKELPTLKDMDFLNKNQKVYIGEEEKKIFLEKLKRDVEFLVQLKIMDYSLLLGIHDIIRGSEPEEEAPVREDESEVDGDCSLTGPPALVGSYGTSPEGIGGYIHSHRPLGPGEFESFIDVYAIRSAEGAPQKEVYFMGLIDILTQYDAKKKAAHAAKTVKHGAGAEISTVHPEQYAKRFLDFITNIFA

[8] = molecular target: T2, Serine/threonine-protein kinase Sgk3 (Homo sapiens) (UniProt Q96BR1); experiment: Selectivity interaction (Kinase panel (Invitrogen)) EUB0000639a SGK3; conditions: at 200 nM
T2 sequence (whole entry): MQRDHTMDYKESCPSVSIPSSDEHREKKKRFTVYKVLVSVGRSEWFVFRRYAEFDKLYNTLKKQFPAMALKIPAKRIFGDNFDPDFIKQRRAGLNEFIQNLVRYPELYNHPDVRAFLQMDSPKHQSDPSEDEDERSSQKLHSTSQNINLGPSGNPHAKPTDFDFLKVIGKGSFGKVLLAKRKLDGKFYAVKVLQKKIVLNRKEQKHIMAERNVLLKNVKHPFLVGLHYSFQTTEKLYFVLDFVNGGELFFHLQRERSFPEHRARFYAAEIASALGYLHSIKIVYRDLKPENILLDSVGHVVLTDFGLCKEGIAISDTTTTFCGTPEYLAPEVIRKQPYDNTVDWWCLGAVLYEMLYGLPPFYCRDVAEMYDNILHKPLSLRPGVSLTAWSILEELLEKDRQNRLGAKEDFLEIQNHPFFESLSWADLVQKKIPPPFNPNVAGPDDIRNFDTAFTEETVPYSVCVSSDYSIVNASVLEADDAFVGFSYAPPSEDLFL

[9] = molecular target: Serine/threonine-protein kinase SBK1 (Homo sapiens) (UniProt Q52WX2); experiment: Selectivity interaction (KinomeScan (DiscoverX)) EUB0000045b SBK1; conditions: at 1 µM
[10] = molecular target: T3, Myosin-IIIb (Homo sapiens) (UniProt Q8WXR4); experiment: Selectivity interaction (Ambit KINOMEscan and KiNATiv profiling in Jurkat cells) EUB0000090b MYO3B; assay type: cell-based; conditions: at 1 µM
T3 sequence (whole entry): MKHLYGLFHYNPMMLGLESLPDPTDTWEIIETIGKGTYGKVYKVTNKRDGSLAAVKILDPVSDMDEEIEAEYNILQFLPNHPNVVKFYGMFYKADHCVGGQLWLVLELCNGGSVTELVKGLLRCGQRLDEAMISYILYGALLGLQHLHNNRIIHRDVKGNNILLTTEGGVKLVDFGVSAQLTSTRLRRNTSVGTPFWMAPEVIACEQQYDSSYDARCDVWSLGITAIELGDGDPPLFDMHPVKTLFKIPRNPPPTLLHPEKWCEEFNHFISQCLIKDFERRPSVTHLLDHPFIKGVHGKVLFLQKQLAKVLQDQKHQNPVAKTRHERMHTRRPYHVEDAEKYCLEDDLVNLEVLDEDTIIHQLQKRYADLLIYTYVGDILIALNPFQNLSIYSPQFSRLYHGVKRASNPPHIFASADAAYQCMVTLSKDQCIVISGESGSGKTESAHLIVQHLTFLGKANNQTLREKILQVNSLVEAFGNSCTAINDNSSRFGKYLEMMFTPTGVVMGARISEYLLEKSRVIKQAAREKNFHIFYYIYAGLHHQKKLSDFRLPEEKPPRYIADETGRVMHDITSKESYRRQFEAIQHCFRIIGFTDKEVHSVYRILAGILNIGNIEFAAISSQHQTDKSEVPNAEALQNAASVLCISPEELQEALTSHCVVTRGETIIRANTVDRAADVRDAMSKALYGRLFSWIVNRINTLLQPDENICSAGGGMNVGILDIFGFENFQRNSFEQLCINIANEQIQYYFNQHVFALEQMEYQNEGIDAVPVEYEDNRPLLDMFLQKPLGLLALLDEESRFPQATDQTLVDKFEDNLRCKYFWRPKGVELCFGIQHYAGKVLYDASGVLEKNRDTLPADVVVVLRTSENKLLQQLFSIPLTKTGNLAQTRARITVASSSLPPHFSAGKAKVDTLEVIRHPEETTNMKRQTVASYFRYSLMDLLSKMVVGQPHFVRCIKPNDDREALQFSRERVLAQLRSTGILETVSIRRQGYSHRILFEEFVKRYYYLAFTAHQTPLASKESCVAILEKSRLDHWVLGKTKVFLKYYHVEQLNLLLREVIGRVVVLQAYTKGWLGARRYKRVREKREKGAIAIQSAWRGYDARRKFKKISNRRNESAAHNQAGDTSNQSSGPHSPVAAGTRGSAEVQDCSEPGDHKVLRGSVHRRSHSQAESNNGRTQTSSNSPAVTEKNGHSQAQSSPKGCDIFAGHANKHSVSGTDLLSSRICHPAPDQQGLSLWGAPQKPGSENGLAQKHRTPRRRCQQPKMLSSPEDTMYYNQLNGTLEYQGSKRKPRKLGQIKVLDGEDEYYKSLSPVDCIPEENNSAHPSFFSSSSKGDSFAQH

Sequence of Serine/threonine-protein kinase Nek7 (Homo sapiens) (Q8TDX7 whole entry, looked up): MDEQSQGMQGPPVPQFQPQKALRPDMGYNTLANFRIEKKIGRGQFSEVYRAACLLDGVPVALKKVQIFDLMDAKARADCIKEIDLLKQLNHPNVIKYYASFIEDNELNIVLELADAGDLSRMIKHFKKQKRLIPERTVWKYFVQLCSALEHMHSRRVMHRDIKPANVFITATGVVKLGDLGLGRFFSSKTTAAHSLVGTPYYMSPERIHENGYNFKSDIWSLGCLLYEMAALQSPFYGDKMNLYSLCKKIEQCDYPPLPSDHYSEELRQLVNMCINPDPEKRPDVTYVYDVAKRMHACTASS
Sequence of Serine/threonine-protein kinase SBK1 (Homo sapiens) (Q52WX2 whole entry): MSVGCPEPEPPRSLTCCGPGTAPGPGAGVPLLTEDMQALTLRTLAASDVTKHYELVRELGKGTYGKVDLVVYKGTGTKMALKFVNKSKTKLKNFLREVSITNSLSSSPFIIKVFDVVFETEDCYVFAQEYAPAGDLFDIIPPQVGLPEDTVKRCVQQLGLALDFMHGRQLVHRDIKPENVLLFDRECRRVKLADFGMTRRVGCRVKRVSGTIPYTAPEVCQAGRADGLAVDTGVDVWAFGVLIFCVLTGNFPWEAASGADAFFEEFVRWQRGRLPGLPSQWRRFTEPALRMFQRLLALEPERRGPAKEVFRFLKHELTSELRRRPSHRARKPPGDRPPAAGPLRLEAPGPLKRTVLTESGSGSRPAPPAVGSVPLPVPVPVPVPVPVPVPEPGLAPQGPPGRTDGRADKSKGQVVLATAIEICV
Sequence of Mitogen-activated protein kinase 1 (P28482 whole entry): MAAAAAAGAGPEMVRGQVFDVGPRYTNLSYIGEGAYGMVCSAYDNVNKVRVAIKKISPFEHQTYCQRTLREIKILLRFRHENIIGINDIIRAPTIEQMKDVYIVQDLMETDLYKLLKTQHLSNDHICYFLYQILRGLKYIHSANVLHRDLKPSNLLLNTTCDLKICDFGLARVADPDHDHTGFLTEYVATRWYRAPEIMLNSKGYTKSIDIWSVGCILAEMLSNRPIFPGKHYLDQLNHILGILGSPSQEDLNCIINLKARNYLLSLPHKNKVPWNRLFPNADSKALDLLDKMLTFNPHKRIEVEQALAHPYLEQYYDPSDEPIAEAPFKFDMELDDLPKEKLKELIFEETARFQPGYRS
Sequence of Dual specificity mitogen-activated protein kinase kinase 2 (Homo sapiens) (P36507 whole entry): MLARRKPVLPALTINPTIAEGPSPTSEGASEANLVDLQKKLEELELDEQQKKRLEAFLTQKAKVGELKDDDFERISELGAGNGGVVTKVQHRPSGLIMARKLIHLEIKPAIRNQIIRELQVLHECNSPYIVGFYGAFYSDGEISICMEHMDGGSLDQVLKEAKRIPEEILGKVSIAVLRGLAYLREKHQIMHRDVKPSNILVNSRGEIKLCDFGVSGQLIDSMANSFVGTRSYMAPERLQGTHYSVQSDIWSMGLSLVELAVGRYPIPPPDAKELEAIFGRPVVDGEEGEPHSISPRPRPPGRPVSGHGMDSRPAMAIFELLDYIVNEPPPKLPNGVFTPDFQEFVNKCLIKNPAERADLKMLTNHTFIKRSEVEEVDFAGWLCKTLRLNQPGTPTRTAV
Sequence of Ribosomal protein S6 kinase alpha-6 (Q9UK32 whole entry): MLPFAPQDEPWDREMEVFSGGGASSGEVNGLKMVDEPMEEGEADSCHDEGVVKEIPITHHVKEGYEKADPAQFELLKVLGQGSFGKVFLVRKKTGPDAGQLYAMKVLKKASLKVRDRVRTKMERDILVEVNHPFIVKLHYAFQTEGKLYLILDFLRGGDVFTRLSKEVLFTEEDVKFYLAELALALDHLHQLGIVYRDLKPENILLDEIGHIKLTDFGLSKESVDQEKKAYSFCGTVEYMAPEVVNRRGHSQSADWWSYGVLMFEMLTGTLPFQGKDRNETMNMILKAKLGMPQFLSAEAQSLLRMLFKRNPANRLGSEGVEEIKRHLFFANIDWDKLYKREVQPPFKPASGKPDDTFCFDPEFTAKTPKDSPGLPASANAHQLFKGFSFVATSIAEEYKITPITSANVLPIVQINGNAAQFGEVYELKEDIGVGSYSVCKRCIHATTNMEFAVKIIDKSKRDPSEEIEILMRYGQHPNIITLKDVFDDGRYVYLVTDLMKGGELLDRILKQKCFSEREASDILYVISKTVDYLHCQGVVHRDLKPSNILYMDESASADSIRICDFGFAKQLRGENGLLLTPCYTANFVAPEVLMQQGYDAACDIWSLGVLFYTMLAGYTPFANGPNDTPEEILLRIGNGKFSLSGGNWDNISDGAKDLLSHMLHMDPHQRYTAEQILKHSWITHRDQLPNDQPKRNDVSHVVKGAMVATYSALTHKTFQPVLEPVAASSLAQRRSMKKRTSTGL
Sequence of Mitogen-activated protein kinase kinase kinase kinase 1 (Homo sapiens) (Q92918 whole entry, looked up): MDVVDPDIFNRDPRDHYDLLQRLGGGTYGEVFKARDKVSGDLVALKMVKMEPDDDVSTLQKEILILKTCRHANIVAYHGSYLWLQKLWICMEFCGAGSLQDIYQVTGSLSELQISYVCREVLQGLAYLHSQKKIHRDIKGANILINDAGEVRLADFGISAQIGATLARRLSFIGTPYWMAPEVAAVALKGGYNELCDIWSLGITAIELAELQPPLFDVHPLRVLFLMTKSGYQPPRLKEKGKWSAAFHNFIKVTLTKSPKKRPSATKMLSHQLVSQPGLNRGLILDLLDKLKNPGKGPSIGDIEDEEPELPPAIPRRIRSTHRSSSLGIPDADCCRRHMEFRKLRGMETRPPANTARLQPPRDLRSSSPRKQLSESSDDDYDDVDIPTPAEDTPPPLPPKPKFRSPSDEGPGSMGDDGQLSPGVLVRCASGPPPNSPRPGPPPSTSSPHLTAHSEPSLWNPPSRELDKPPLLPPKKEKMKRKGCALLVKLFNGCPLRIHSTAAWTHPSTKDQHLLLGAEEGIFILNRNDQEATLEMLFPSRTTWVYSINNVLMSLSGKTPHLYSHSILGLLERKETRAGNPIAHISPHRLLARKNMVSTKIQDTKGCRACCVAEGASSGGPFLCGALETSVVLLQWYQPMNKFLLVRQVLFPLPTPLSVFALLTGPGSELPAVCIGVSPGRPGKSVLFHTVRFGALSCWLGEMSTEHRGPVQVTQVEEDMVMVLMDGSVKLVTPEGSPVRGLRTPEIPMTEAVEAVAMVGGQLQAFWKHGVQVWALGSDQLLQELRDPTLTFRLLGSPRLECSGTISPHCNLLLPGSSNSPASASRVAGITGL
Sequence of SRSF protein kinase 1 (Q96SB4 whole entry): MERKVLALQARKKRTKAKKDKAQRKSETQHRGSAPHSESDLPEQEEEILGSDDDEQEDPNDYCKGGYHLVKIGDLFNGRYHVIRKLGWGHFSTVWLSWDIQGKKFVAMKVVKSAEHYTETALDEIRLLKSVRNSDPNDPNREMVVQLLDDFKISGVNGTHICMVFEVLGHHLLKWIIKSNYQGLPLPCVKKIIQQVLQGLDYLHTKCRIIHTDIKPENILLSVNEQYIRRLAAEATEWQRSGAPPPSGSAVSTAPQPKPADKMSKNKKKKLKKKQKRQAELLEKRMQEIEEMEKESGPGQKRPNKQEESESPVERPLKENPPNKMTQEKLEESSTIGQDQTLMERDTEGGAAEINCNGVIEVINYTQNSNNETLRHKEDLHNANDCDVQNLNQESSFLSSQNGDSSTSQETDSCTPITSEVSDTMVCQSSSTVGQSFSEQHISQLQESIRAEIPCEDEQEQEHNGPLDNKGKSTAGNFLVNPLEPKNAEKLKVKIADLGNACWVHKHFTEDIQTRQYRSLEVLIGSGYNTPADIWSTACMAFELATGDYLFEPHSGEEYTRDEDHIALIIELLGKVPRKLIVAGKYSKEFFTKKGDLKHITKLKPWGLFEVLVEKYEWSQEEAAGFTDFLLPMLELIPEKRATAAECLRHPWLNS

Molecule `CC(C)(O)[C@H](F)CN1Cc2cc(NC(=O)c3cnn4cccnc34)c(N3CCOCC3)cc2C1=O` has a dTM [1] of -0.2 K.

For `COc1cc(N(C)c2ccnc3ccc(C(F)(F)F)cc23)cc(OC)c1OC`, the % binding [2] was 96%.

`Nc1cnc(N2CCc3cc(S(=O)(=O)Nc4c(F)cc(Cl)cc4F)cc(N4CCCC4=O)c32)nc1` [TP-020n] was tested, and the % of control [3] was 81%.

For `C=CC(=O)Nc1ccc(C(=O)Nc2[nH]nc3c2CN(C(=O)N[C@H](CN(C)C)c2ccccc2)C3(C)C)cc1`, the % of engagement [4] was 0.4%.

Molecule `Cn1cc(-n2cnc3c(NCc4nc5cc(Cl)c(Cl)cc5[nH]4)nc(N4CCOCC4)nc32)cn1` has a % of inhibition [5] of 8.68%.

For `CCc1ccccc1C(=O)Nc1n[nH]c2c(C)c(F)c(C3C(C#N)=C(C)N(C)C(C)=C3C#N)cc12` [BAY-3827], the % of control [6] was 2.9%.

`CC[C@@H]1[C@H](F)C(=O)N[C@@H]1COc1nccc2cc(C(N)=O)c(OC)cc12` [ZIMLOVISERTIB] showed a % of inhibition [7] of 87.4% and a % of inhibition [8] of 1.19%.

In the case of `C=CC(=O)Nc1cc(-n2c(=O)ccc3cnc4ccc(-c5ccc(NS(C)(=O)=O)cc5)cc4c32)ccc1C`, the % of control [9] is reported as 4.6%.

`CN(C)C/C=C/C(=O)Nc1ccc(C(=O)N2CCCC(Nc3ncc(Cl)c(-c4c[nH]c5ccccc45)n3)C2)cc1` (stereo not given) showed a % of control [10] of 100%.
